From patent US5637584A, “Solvate of olanzapine” (Eli Lilly and Company, priority 1995, dated 1997)

What was measured:
[1] = stability of the anhydrous polymorph; type: physicochemical; conditions: suitability for pharmaceutical formulations
[2] = detection of radiolabelled compound in saliva; type: in vivo
Experimental: The anhydrous Form I 2-methyl-4-(4-methyl-1-piperazinyl)-10H-thieno-[2,3-b][1,5]benzodiazepine compound is effective over a wide dosage range, the actual dose administered being dependent on the condition being treated. For example, in the treatment of adult humans, dosages of from 0.25 to 30 mg, preferably from 1 to 20 mg, per day may be used. A once a day dosage is normally sufficient, although divided doses may be administered. For treatment of central nervous system disorders, a dose range of from 1 to 30 mg, preferably 2.5 to 20 mg per day is suitable.

[3] = system: apomorphine-induced climbing behavior; experiment: apomorphine-induced climbing behavior in mice; type: in vivo
Excerpt: (§1) The Form I olanzapine prepared by the process of this invention has useful central nervous system activity. […] For example, the anhydrous Form I compound has been assessed in a number of standard behavior tests predictive of antipsychotic activity. The claimed compound antagonised apomorphine-induced climbing behavior and hypothermia in mice. See Moore, N. A. et al Psychopharmacology 94 (2), 263-266 (1988).

[4] = system: apomorphine-induced hypothermia; experiment: apomorphine-induced hypothermia in mice; type: in vivo
Excerpt: as §1

[5] = system: conditioned avoidance response; experiment: conditioned avoidance response in rats; type: in vivo
catalepsy = experiment: induction of catalepsy; type: in vivo; conditions: compared with doses required to block conditioned avoidance response
5-HT2B receptor = 5-HT2B receptor activity

Structure (SMILES) | stability of crystal form [1] | detection in saliva [2] | antagonism of apomorphine-induced climbing behavior [3] | antagonism of apomorphine-induced hypothermia [4] | inhibition of conditioned avoidance response [5] | induction of catalepsy (catalepsy) | 5-HT2B receptor activity (5-HT2B receptor)
Cc1cc2c(s1)Nc1ccccc1N=C2N1CCN(C)CC1 [anhydrous Form II 2-methyl-4-(4-methyl-1-piperazinyl)-10H-th] [2-methyl-4-(4-methyl-1-piperazinyl)-10H-thieno[2,3-b][1,5]benzodiazepine] | metastable |  |  |  |  |  | 
Cc1cc2c(s1)Nc1ccccc1N=C2N1CCN(C)CC1 [2-methyl-4-(4-methyl-1-piperazinyl)-10H-thieno-[2,3b][1,5]benzodiazepine] |  | can be detected in the saliva |  |  |  |  | 
Cc1cc2c(s1)Nc1ccccc1N=C2N1CCN(C)CC1 [anhydrous Form I olanzapine, 2-methyl-4-(4-methyl-1-piperazinyl)-10H-thieno[2,3-b][1,5]benzodiazepine] | stable |  | antagonised | antagonised | inhibits | induces cataleptsy only at higher doses | 5-HT2B receptor activity
